Reference: publication PMC7150891, “Mertansine Inhibits mRNA Expression and Enzyme Activities of Cytochrome P450s and Uridine 5′-Diphospho-Glucuronosyltransferases in Human Hepatocytes and Liver Microsomes” (Pharmaceutics, 2020)
“Also recorded” adds a separate entry of the source.

Key:
[1] = biological target: T1, UGT2B7 (Homo sapiens, UniProt P16662); assay: Inhibition of UGT2B7-catalyzed naloxone 3-β-D-glucuronidation in ultrapooled human liver microsomes; format: in vitro ADME
T1 construct: ultrapooled human liver microsomes (0.2 mg/mL); from tissue; host or cells: human liver microsomes (ultrapooled)
Protocol: The inhibitory potential of mertansine on UGT1A1, UGT1A3, UGT1A4, UGT1A6, UGT1A9, and UGT2B7 activities was evaluated using liquid chromatography–tandem mass spectrometry (LC-MS/MS) with a cocktail of UGT substrates and ultrapooled human liver microsomes. Each incubation mixture was prepared to a final volume of 100 μL as follows: ultrapooled human liver microsomes (0.2 mg/mL), 5 mM UDPGA, 10 mM magnesium chloride, alamethicin (25 μg/mL), 50 mM Tris buffer (pH 7.4), various concentrations of mertansine in methanol (final concentrations of 0.01–50 μM), and the cocktail sets of UGT enzyme-specific substrates. Two cocktail sets were used: set A contained 0.5 μM SN-38 for UGT1A1, 2 μM chenodeoxycholic acid for UGT1A3, and 0.5 μM trifluoperazine for UGT1A4; and set B contained 1 μM N-acetylserotonin for UGT1A6, 0.2 μM mycophenolic acid for UGT1A9, and 1 μM naloxone for UGT2B7. The reactions were initiated by adding UDPGA and incubated in a shaking water bath for 60 min at 37 °C. Reactions were terminated by adding 50 μL of ice-cold acetonitrile containing internal standards (IS, propofol glucuronide for set A and meloxicam for set B). Incubation mixtures were centrifuged at 13,000 g for 8 min at 4 °C. Next, 50 μL of each supernatant of sets A and B was mixed, and aliquots (5 μL) were analyzed using LC-MS/MS. […]

[2] = test system: CYP2C19 mRNA; assay: CYP2C19 mRNA level in human hepatocytes after 48 h treatment (RT-PCR); details: plated cryopreserved human hepatocytes, IC50, suppression of CYP2C19 mRNA expression, 1.25–2500 nM
[3] = test system: CYP2C8 mRNA; assay: CYP2C8 mRNA level in human hepatocytes after 48 h treatment (RT-PCR); details: plated cryopreserved human hepatocytes, IC50, suppression of CYP2C8 mRNA expression, 1.25–2500 nM
[4] = test system: CYP1A2; assay: CYP1A2-catalyzed phenacetin O-deethylase activity in human hepatocytes after 48 h treatment
Protocol: (§1) Samples were incubated for 48 h at 37 °C in 5% CO2, and the medium was exchanged with 250 μL of fresh medium containing drugs or the vehicle every 24 h.
(§2) The effects of mertansine on CYP1A2, CYP2B6, and CYP3A4 activities were evaluated. […] Mixtures were vortexed for 2 min and then centrifuged at 13,000 g for 4 min at 4 °C. The supernatant (40 µL) was diluted with 60 µL of deionized water and then mixed for 2 min by vortexing. An aliquot (5 µL) was analyzed using LC-MS/MS [37], and CYP1A2, CYP2B6, and CYP3A4 enzyme activities were expressed as formation rates (pmol/million cells/min).
(§3) The percentage changes in enzymatic activities were calculated as (CYP activity with test compound treatment/CYP activity with vehicle control treatment) × 100. The IC50 (the concentration of the inhibitor needed for half-maximal inhibition) values were calculated using SigmaPlot ver. […] Ki (the inhibition constant) and the inhibition mode of UGT1A1, UGT1A3, and UGT1A4 activities were determined using Enzyme Kinetics ver. 1.1 (Systat Software, Inc.).

[5] = test system: UGT1A1 mRNA; assay: UGT1A1 mRNA level in human hepatocytes after 48 h treatment (RT-PCR); details: human, IC50, suppression of UGT1A1 mRNA expression, 1.25–2500 nM
[6] = test system: CYP2B6; assay: CYP2B6-catalyzed bupropion hydroxylase activity in human hepatocytes after 48 h treatment
Protocol: as §1, §2, §3

[7] = test system: UGT1A9 mRNA; assay: UGT1A9 mRNA level in human hepatocytes after 48 h treatment (RT-PCR); details: plated cryopreserved human hepatocytes, IC50, suppression of UGT1A9 mRNA expression, 1.25–2500 nM
[8] = Mean ± SD of three human hepatocyte lots, 48 h
[9] = human hepatocytes Lot 319, 48 h
[10] = human hepatocytes Lot 321, 48 h
[11] = human hepatocytes Lot 361, 48 h
[12] = highest concentration (2500 nM), 48 h, mean of three human hepatocytes
[13] = mertansine 48 h, three human hepatocytes

T1 sequence (P16662 24-529): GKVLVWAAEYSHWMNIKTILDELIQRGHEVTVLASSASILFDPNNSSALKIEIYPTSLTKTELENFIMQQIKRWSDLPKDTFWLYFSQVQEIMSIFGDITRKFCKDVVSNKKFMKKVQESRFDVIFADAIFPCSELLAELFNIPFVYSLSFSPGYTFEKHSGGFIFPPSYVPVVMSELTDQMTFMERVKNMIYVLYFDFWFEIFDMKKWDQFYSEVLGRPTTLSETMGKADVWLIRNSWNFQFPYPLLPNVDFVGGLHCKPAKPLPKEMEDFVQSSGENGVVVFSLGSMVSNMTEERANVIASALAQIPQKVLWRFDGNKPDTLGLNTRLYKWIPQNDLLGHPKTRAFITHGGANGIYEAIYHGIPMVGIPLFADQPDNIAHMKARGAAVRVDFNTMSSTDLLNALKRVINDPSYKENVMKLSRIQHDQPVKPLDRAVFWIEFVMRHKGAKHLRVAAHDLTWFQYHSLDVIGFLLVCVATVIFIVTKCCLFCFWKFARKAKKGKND

For `COc1cc2cc(c1Cl)N(C)C(=O)CC(OC(=O)C(C)N(C)C(=O)CCS)C1(C)OC1C(C)C1CC(O)(NC(=O)O1)C(OC)C=CC=C(C)C2` (stereo not shown) [mertansine, Mertansine], the “Inhibition of UGT2B7 enzyme activity” value ([1]; human liver microsomes, mertansine at 50 µM) was “no inhibition; also recorded: negligibly inhibited”, the “IC50, naloxone 3-β-D-glucuronidation (UGT2B7)” value ([1]; ultrapooled human liver microsomes, 1 µM naloxone (cocktail)) was “No inhibition” and the IC50 at 48 h [2, 8] was 540 ± 233 nM. For the same compound, the IC50 at 48 h [2, 9] was 574 nM, the IC50 at 48 h [2, 10] was 754 nM and the IC50 at 48 h [2, 11] was 291 nM. The IC50 at 48 h [3, 8] was 32.1 ± 14.9 nM, the IC50 at 48 h [3, 9] was 48.7 nM and the IC50 at 48 h [3, 10] was 20 nM. For the same compound, the IC50 at 48 h [3, 11] was 27.5 nM, the “Mean decrease of CYP1A2-mediated phenacetin O-deethylase activity” value [4, 12] was 48.3% and the “Decrease of CYP1A2-mediated phenacetin O-deethylase activity compared to vehicle” value [4, 13] was 27.8–79.0%. The IC50 at 48 h [5, 8] was 857 ± 782 nM, the IC50 at 48 h [5, 9] was 784 nM and the IC50 at 48 h [5, 10] was 113 nM. For the same compound, the IC50 at 48 h [5, 11] was 1670 nM, the “Mean decrease of CYP2B6-mediated bupropion hydroxylase activity” value [6, 12] was 63.5% and the “Decrease of CYP2B6-mediated bupropion hydroxylase activity compared to vehicle” value [6, 13] was 23.9–93.1%. It also gave an IC50 at 48 h [7, 8] of 54.1 ± 29.1 nM, an IC50 at 48 h [7, 9] of 86.9 nM and an IC50 at 48 h [7, 10] of 31.4 nM. The IC50 at 48 h [7, 11] was 44.1 nM.
